Literature values in patent publication US12029811B2, “Formulation and method for the treatment of androgenic alopecia” (CENTRO INTERNACIONAL DE COSMIATRÍA, S.A.P.I. DE C.V., priority 2018, dated 2024).

Experiments:
alopecia = details: topical 5% solution (male) or 2% (female alopecia)
patients = details: oral, 5 mg tablets; impotence, erection failure, decreased libido, gynecomastia

In the case of `Nc1cc(N2CCCCC2)nc(N)[n+]1[O-]` [Minoxidil, 2,6-diamino-4-(piperidin-1-yl) pyrimidine 1-oxide], the “Individuals responding to the treatment” value (alopecia) is given as ≤ 40%.

For `CC(C)(C)NC(=O)[C@H]1CC[C@H]2[C@@H]3CC[C@H]4NC(=O)C=C[C@]4(C)[C@H]3CC[C@]12C` [Finasteride, N-(1,1-dimethylethyl)-3-oxo-4-aza 5a-androst-1-en-17β-carboxamide], the “Side effects (in words)” value (patients) is listed as “side effects were significant”.
